Reference: the NIST ThermoML archive (doi:10.1021/acs.jced.8b00201)

Experiment: xn = mol fraction of the nth substance listed
Settings: 100 kPa, Liquid; for viscosity: Concentric cylinders viscometry; for mass density: Vibrating tube method

O=C1CCCCC1 [cyclohexanone] + CCCCCCCCO
Settings	mass density [kg/m3]	viscosity [mPa·s]
293.15 K, x1 = 0.0803	831.3	7.76
293.15 K, x1 = 0.1519	837.4	6.62
293.15 K, x1 = 0.2388	845.2	5.58
293.15 K, x1 = 0.3427	855.4	4.48
293.15 K, x1 = 0.4378	865.6	3.72
293.15 K, x1 = 0.5606	880	2.97
293.15 K, x1 = 0.6498	891.6	2.57
293.15 K, x1 = 0.7407	904.5	2.33
293.15 K, x1 = 0.8422	920.4	2.28
293.15 K, x1 = 0.9377	937.4	2.25
293.15 K, x1 = 1	948.8	2.3
298.15 K, x1 = 0.0803	827.7	6.52
298.15 K, x1 = 0.1519	833.6	5.65
298.15 K, x1 = 0.2388	841.3	4.8
298.15 K, x1 = 0.3427	851.2	3.91
298.15 K, x1 = 0.4378	861.2	3.29
298.15 K, x1 = 0.5606	875.4	2.66
298.15 K, x1 = 0.6498	886.8	2.32
298.15 K, x1 = 0.7407	899.5	2.13
298.15 K, x1 = 0.8422	915.1	2.07
298.15 K, x1 = 0.9377	931.4	2.04
298.15 K, x1 = 1	943.1	2.09
303.15 K, x1 = 0.0803	824.1	5.54
303.15 K, x1 = 0.1519	829.8	4.87
303.15 K, x1 = 0.2388	837.4	4.17
303.15 K, x1 = 0.3427	847.2	3.44
303.15 K, x1 = 0.4378	857	2.94
303.15 K, x1 = 0.5606	871.1	2.42
303.15 K, x1 = 0.6498	882.3	2.16
303.15 K, x1 = 0.7407	894.9	1.97
303.15 K, x1 = 0.8422	910.4	1.9
303.15 K, x1 = 0.9377	926.6	1.87
303.15 K, x1 = 1	938.2	1.91
308.15 K, x1 = 0.0803	820.5	4.73
308.15 K, x1 = 0.1519	826.1	4.16
308.15 K, x1 = 0.2388	833.6	3.61
308.15 K, x1 = 0.3427	843.2	3.03
308.15 K, x1 = 0.4378	852.9	2.6
308.15 K, x1 = 0.5606	866.8	2.15
308.15 K, x1 = 0.6498	877.9	1.94
308.15 K, x1 = 0.7407	890.4	1.79
308.15 K, x1 = 0.8422	905.9	1.74
308.15 K, x1 = 0.9377	922	1.72
308.15 K, x1 = 1	933.5	1.75
313.15 K, x1 = 0.0803	816.8	4.07
313.15 K, x1 = 0.1519	822.4	3.6
313.15 K, x1 = 0.2388	829.7	3.12
313.15 K, x1 = 0.3427	839.2	2.63
313.15 K, x1 = 0.4378	848.8	2.3
313.15 K, x1 = 0.5606	862.5	1.95
313.15 K, x1 = 0.6498	873.6	1.75
313.15 K, x1 = 0.7407	886	1.64
313.15 K, x1 = 0.8422	901.3	1.6
313.15 K, x1 = 0.9377	917.3	1.57
313.15 K, x1 = 1	928.8	1.6
318.15 K, x1 = 0.0803	813.1	3.51
318.15 K, x1 = 0.1519	818.6	3.11
318.15 K, x1 = 0.2388	825.8	2.73
318.15 K, x1 = 0.3427	835.2	2.32
318.15 K, x1 = 0.4378	844.7	2.04
318.15 K, x1 = 0.5606	858.4	1.75
318.15 K, x1 = 0.6498	869.3	1.6
318.15 K, x1 = 0.7407	881.6	1.5
318.15 K, x1 = 0.8422	896.9	1.46
318.15 K, x1 = 0.9377	912.9	1.44
318.15 K, x1 = 1	924.4	1.46
323.15 K, x1 = 0.0803	809.5	3.03
323.15 K, x1 = 0.1519	814.9	2.73
323.15 K, x1 = 0.2388	822.1	2.42
323.15 K, x1 = 0.3427	831.5	2.09
323.15 K, x1 = 0.4378	841	1.85
323.15 K, x1 = 0.5606	854.6	1.6
323.15 K, x1 = 0.6498	865.5	1.46
323.15 K, x1 = 0.7407	877.9	1.37
323.15 K, x1 = 0.8422	893.2	1.34
323.15 K, x1 = 0.9377	909.2	1.32
323.15 K, x1 = 1	920.7	1.34
